{
  "source": "paper PMC10987858",
  "about": "(Heliyon, 2024)",
  "data": [
    {"molecular_target": "Bovine Serum Albumin (BSA) (Bos taurus, UniProt P02769)", "sequence (P02769 25-607)": "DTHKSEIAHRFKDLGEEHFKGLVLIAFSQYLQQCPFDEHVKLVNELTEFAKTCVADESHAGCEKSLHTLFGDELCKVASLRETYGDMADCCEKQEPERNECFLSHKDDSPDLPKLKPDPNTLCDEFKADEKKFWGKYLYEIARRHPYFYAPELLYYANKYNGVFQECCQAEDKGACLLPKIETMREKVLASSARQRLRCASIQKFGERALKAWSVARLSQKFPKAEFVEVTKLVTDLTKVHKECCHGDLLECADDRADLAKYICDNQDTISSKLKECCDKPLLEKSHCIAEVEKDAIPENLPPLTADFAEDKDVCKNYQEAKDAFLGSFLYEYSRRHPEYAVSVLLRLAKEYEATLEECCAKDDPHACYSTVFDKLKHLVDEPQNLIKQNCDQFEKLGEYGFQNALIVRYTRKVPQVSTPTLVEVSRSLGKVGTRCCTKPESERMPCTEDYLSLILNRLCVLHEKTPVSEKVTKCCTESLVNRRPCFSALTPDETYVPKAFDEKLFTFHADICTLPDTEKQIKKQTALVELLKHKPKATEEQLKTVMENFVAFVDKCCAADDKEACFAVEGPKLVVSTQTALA", "experiment": "tryptophan fluorescence quenching titration", "type": "binding", "settings": "298 K; phosphate buffer, pH not given; 10 μM BSA stock; double-log", "units": {"Kb": "M⁻¹"}, "values": [
      {"smiles": "O=C(Cc1ccccc1)NN=Cc1ccccc1O", "note": "[HBPAH, N'-(2-hydroxybenzylidene)-2-phenylacetohydrazide]", "Kb": 683000},
      {"smiles": "CC=NNC(=O)Cc1ccccc1", "note": "[EPAH, N′-ethylidene-2-phenylacetohydrazide]", "Kb": "2.47e+06"},
      {"smiles": "O=C(Cc1ccccc1)N/N=C/C=C/c1ccccc1", "note": "[PPAH, 2-Phenyl-N'-(3-phenylallylidene)acetohydrazide]", "Kb": "1.75e+08"},
      {"smiles": "O=C(Cc1ccccc1)NN=Cc1ccco1", "note": "[FMPAH, N’-(furan-2-ylmethylene)-2-phenylacetohydrazide]", "Kb": 44500}
    ]}
  ]
}
